Results reported in ChEMBL document CHEMBL1921772, “Crassocolides N-P, three cembranoids from the Formosan soft coral Sarcophyton crassocaule” (Bioorg Med Chem Lett, 2011).
In brackets after ≈: the same amount, converted by molar mass.

Tests used:
Format in all cases: functional, cell-based
HeLa = assay: Cytotoxicity against human HeLa cells after 1 to 11 days by MTT assay
KB = assay: Cytotoxicity against human KB cells after 1 to 11 days by MTT assay
Daoy = assay: Cytotoxicity against human DaOY cells after 1 to 11 days by MTT assay

C=C1C(=O)O[C@H]2/C=C(\C)CC/C=C(\C)CCC(=O)/C(C)=C\C[C@@H]12 [CRASSOCOLIDE O]
IC50 (HeLa): > 20 µg/mL | IC50 (KB): > 20 µg/mL | IC50 (Daoy): 4.5 µg/mL (≈ 14.3 µM)

C=C1C(=O)O[C@H]2/C=C(\C)CC/C=C(\C)CC[C@H](OC(C)=O)/C(C)=C\C[C@@H]12 [CRASSOCOLIDE P]
IC50 (HeLa): 10.8 µg/mL (≈ 30.1 µM) | IC50 (KB): > 20 µg/mL | IC50 (Daoy): 1.9 µg/mL (≈ 5.3 µM)

C=C1C(=O)O[C@H]2/C=C(\C)CC/C=C(\C)CCC(=O)[C@]3(C)O[C@@H]3C[C@@H]12 [CRASSOCOLIDE N]
IC50 (HeLa): 4.7 µg/mL (≈ 14.2 µM) | IC50 (KB): 4.7 µg/mL (≈ 14.2 µM) | IC50 (Daoy): 2.8 µg/mL (≈ 8.47 µM)

CO[C@@]12[C@H](COC(N)=O)C3=C(C(=O)C(C)=C(N)C3=O)N1C[C@@H]1N[C@@H]12 [MITOMYCIN]
IC50 (HeLa): 0.06 µg/mL (≈ 0.179 µM) | IC50 (KB): 0.08 µg/mL (≈ 0.239 µM) | IC50 (Daoy): 0.05 µg/mL (≈ 0.15 µM)
